Where a name gives a salt, the structure may show the parent alone.
Target: rat TRPV1 (Rattus norvegicus (Rat), UniProt O35433)
Details: read-out: Rat IC50
Procedure: Biological Testing: Functional Assay: Block of Capsaicin-Induced Ca^2+ Influx A. Human Assay
Cells were passaged frequently, every 3-5 days, to avoid overgrowth, depletion of essential medium components, or acidic medium exposure. Cells were passaged using a brief wash in 0.05% trypsin with 1 mM EDTA, followed by dissociation in divalent-free phosphate-buffered saline (Hyclone #SH30028.02). […] The assay buffer was composed of 130 mM NaCl, 2 mM KCl, 2 mM MgCl2, 10 mM HEPES, 5 mM glucose, and either 2 mM or 20 μM CaCl2. On the day of the experiment, the culture medium was replaced with 2 mM calcium assay buffer using an automated plate washer (ELx405; Biotek, VT). […] After loading the cells, the dye solution was replaced with 50 μL/well of 20 μM calcium assay buffer using the ELx405 plate washer. Test compounds (50 μL/well) were added to the plate and incubated for 30 min. […] The IC50 values were determined. […] The contents of the wells were mixed 3 times (40 μL mix volume) immediately after the additions were made. Concentration dependence of block was determined by exposing each well of cells in duplicate rows of a 96 well plate to a serial dilution of test compound. The concentration series usually started at 10 μM with a three-fold serial decrement in concentration. The magnitude of the capsaicin response was determined by measuring the change in fluo3 fluorescence before and 100 seconds after the addition of the agonist. Data were analyzed using a non-linear regression program (Origin; OriginLab, MA). IC50 values shown are the average (mean) of the results obtained.
The assay was performed as described above, using HEK293 cells transfected with rat TRPV1 (rTRPV1/HEK293). […] IC50 values shown are the average (mean) of the results obtained.

rat TRPV1, sequence (O35433 whole entry): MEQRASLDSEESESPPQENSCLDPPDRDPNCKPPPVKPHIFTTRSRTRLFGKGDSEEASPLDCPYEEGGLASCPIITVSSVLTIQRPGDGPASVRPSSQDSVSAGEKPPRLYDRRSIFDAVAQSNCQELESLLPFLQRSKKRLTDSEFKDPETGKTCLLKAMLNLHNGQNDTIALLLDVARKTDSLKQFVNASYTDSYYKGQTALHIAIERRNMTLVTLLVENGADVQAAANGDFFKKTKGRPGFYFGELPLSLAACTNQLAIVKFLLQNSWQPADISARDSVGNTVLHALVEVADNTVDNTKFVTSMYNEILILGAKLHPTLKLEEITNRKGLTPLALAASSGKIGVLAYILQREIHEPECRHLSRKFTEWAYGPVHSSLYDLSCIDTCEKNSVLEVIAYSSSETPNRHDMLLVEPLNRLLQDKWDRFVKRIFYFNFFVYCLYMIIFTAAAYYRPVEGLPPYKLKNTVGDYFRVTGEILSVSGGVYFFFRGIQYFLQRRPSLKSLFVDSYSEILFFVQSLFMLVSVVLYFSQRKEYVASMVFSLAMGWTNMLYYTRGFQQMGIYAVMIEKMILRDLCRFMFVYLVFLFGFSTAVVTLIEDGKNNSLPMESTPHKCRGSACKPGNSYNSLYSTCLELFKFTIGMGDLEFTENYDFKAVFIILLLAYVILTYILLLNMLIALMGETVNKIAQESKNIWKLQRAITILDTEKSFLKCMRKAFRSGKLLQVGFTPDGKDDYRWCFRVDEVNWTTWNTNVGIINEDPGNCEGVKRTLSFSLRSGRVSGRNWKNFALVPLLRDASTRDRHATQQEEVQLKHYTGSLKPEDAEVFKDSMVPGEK

Row | Compound | IC50 [nM]
1 | CN1CCCc2ccc(Nc3nc(N4CCCCC4)nc4c3CCN(c3ncccc3C(F)(F)F)CC4)cc21 [Example 163, (1-Methyl-1,2,3,4-tetrahydro-quinolin-7-yl)-[2-piperidin-1-yl-7-(3-trifluoromethyl-pyridin-2-yl)-6,7,8,9-tetrahydro-5H-pyrimido[4,5-d]azepin-4-yl]-amine hydrochloride salt] | 120
2 | CC1OCCC1Sc1nc2c(c(Nc3ccc4c(c3)N(C)CCC4(C)C)n1)CCN(c1ncccc1C(F)(F)F)CC2 (stereo not drawn) [Example 374, 2,5-Anhydro-1,4-dideoxy-3-thio-3-S-{7-[3-(trifluoromethyl)pyridin-2-yl]-4-[(1,4,4-trimethyl-1,2,3,4-tetrahydroquinolin-7-yl)amino]-6,7,8,9-tetrahydro-5H-pyrimido[4,5-d]azepin-2-yl}pentitol] | 4
3 | CC(C)(C)c1ccc(Nc2nc(N3CCCCC3)nc3c2CCN(c2ncccc2C(F)(F)F)CC3)cc1N [Example 200, 4-(1,1-Dimethylethyl)-N1-{2-piperidin-1-yl-7-[3-(trifluoromethyl)pyridin-2-yl]-6,7,8,9-tetrahydro-5H-pyrimido[4,5-d]azepin-4-yl}benzene-1,3-diamine] | 110
4 | CC(C)c1nc2c(c(Nc3ccc(C(C)(O)C(F)(F)F)cc3)n1)CCN(c1ncccc1C(F)(F)F)CC2 (centres unmarked) [Example 179, 1,1,1-Trifluoro-2-[4-({2-(1-methylethyl)-7-[3-(trifluoromethyl)pyridin-2-yl]-6,7,8,9-tetrahydro-5H-pyrimido[4,5-d]azepin-4-yl}amino)phenyl]propan-2-ol] | 1340
5 | FC(F)(F)c1ccc(Nc2ncnc3c2CCN(c2ncccc2C(F)(F)F)CC3)cc1 [Example 2, (4-Trifluoromethyl-phenyl)-[7-(3-trifluoromethyl-pyridin-2-yl)-6,7,8,9-tetra-hydro-5H-pyrimido[4,5-d]azepin-4-yl]-amine] | 790
6 | CC(C)(C)c1ccc(Nc2nc(-c3ccncc3)nc3c2CCN(c2ncccc2C(F)(F)F)CC3)cc1 [Example 168, N-[4-(1,1-Dimethylethyl)phenyl]-2-pyridin-4-yl-7-[3-(trifluoromethyl)pyridin-2-yl]-6,7,8,9-tetrahydro-5H-pyrimido[4,5-d]azepin-4-amine trifluoroacetic acid salt] | 30
7 | FC(F)(F)c1ccc(Nc2nc(C3CC3)nc3c2CCN(c2ncccc2C(F)(F)F)CC3)cc1 [Example 5, [2-Cyclopropyl-7-(3-trifluoromethyl-pyridin-2-yl)-6,7,8,9-tetrahydro-5H-pyrimido[4,5-d]azepin-4-yl]-(4-trifluoromethyl-phenyl)-amine] | 150
8 | CC(C)c1nc2c(c(NCc3ccc(C(F)(F)F)cc3)n1)CCN(c1ncccc1C(F)(F)F)CC2 [Example 117, 2-(1-Methylethyl)-N-{[4-(trifluoromethyl)phenyl]methyl}-7-[3-(trifluoromethyl)pyridin-2-yl]-6,7,8,9-tetrahydro-5H-pyrimido[4,5-d]azepin-4-amine] | 13500
9 | CC(C)c1nc2c(c(NCCc3ccc(Cl)cc3)n1)CCN(c1ncccc1C(F)(F)F)CC2 [Example 124, N-[2-(4-Chlorophenyl)ethyl]-2-(1-methylethyl)-7-[3-(trifluoromethyl)pyridin-2-yl]-6,7,8,9-tetrahydro-5H-pyrimido[4,5-d]azepin-4-amine] | 570
10 | CC(C)c1nc2c(c(Nc3ccc(C(C)(C)C)cc3)n1)CCN(c1ncc([N+](=O)[O-])cc1C(F)(F)F)CC2 [Example 290, N-[4-(1,1-Dimethylethyl)phenyl]-2-(1-methylethyl)-7-[5-nitro-3-(trifluoromethyl)pyridin-2-yl]-6,7,8,9-tetrahydro-5H-pyrimido[4,5-d]azepin-4-amine] | 100
11 | CN(C)c1nc2c(c(Nc3ccc4c(c3)OCCO4)n1)CCN(c1ncccc1C(F)(F)F)CC2 [Example 68B, N^4-(2,3-Dihydro-benzo[1,4]dioxin-6-yl)-N^2,N^2-dimethyl-7-(3-trifluoromethyl-pyridin-2-yl)-6,7,8,9-tetrahydro-5H-pyrimido[4,5-d]azepine-2,4-diamine trifluoroacetic acid salt] | 3200
12 | CC(C)c1nc2c(c(Nc3ccc(C(F)(F)F)cc3)n1)CCN(c1ncccc1[N+](=O)[O-])CC2 [Example 88, [2-Isopropyl-7-(3-nitro-pyridin-2-yl)-6,7,8,9-tetrahydro-5H-pyrimido[4,5-d]azepin-4-yl]-(4-trifluoromethyl-phenyl)-amine] | 960
13 | CC(C)c1nc2c(c(Nc3ccc(C(C)(C)CO)cc3)n1)CCN(c1ncccc1C(F)(F)F)CC2 [Example 181, 2-Methyl-2-[4-({2-(1-methylethyl)-7-[3-(trifluoromethyl)pyridin-2-yl]-6,7,8,9-tetrahydro-5H-pyrimido[4,5-d]azepin-4-yl}amino)phenyl]propan-1-ol] | 820
14 | CC(C)c1nc2c(c(Nc3ccc(N4CCCC4)nc3)n1)CCN(c1ncccc1C(F)(F)F)CC2 [Example 165, [2-Isopropyl-7-(3-trifluoromethyl-pyridin-2-yl)-6,7,8,9-tetrahydro-5H-pyrimido[4,5-d]azepin-4-yl]-(6-pyrrolidin-1-yl-pyridin-3-yl)-amine] | 2250
15 | Cc1nc2c(c(Nc3ccc(C(C)(C)C)cc3)n1)CCN(c1ncccc1C(F)(F)F)CC2 [Example 15, (4-tert-Butyl-phenyl)-[2-methyl-7-(3-trifluoromethyl-pyridin-2-yl)-6,7,8,9-tetrahydro-5H-pyrimido[4,5-d]azepin-4-yl]-amine] | 46
16 | CC(C)c1nc2c(c(Nc3ccc4c(c3)CCC4)n1)CCN(c1ncccc1C(F)(F)F)CC2 [Example 141, N-(2,3-Dihydro-1H-inden-5-yl)-2-(1-methylethyl)-7-[3-(trifluoromethyl)pyridin-2-yl]-6,7,8,9-tetrahydro-5H-pyrimido[4,5-d]azepin-4-amine hydrochloride salt] | 130
17 | Cc1cc(C(F)(F)F)ccc1Nc1nc(N2CCOC(CO)C2)nc2c1CCN(c1ncccc1C(F)(F)F)CC2 (centres unmarked) [Example 273, [4-(4-{[2-Methyl-4-(trifluoromethyl)phenyl]amino}-7-[3-(trifluoromethyl)pyridin-2-yl]-6,7,8,9-tetrahydro-5H-pyrimido[4,5-d]azepin-2-yl)morpholin-2-yl]methanol] | 680
18 | CC(C)(C)c1ccc(Nc2nc(N3CCCC3)nc3c2CCN(c2ncccc2C(F)(F)F)CC3)cc1 [Example 248, N-[4-(1,1-Dimethylethyl)phenyl]-2-pyrrolidin-1-yl-7-[3-(trifluoromethyl)pyridin-2-yl]-6,7,8,9-tetrahydro-5H-pyrimido[4,5-d]azepin-4-amine] | 530
19 | FC(F)(F)c1ccc(Nc2nc(N[C@@H]3CCOC3)nc3c2CCN(c2ncccc2C(F)(F)F)CC3)nc1 [Example 263, N^2-[(3R)-Tetrahydrofuran-3-yl]-7-[3-(trifluoromethyl)pyridin-2-yl]-N^4-[5-(trifluoromethyl)pyridin-2-yl]-6,7,8,9-tetrahydro-5H-pyrimido[4,5-d]azepine-2,4-diamine] | 1460
20 | CN1CCCc2ccc(Nc3nc(OC4CCCC4)nc4c3CCN(c3ncccc3C(F)(F)F)CC4)cc21 [Example 324, 2-(Cyclopentyloxy)-N-(1-methyl-1,2,3,4-tetrahydroquinolin-7-yl)-7-[3-(trifluoromethyl)pyridin-2-yl]-6,7,8,9-tetrahydro-5H-pyrimido[4,5-d]azepin-4-amine] | 100

Source: patent US9422293B2 (priority 2006, dated 2016)
